This note sets out measurements from patent US11944605B2, “Rapamycin analogs and uses thereof” (Janssen Pharmaceutica NV, priority 2018, dated 2024).

Each structure is given as a SMILES string. Bounds are passed on as bounds.

The experiment relates to pS6K1 (p-p70 S6 Kinase (Thr389)) in MCF-7 cells. The experiment is described as follows: AlphaLISA Ultra pS6K1 Assay. It is filed as cell-based. The following applies: Homo sapiens, 1.5 h; MCF7 cells, 90 min. The procedure: AlphaLISA Ultra pS6K1 Assay
1. Seed MCF-7 cells in Corning 3701 plate and incubate for 20˜24 hour. 12,000˜16,000 cells will be seeded in 36 μL medium per well.
2. Change the culture medium with fresh medium and incubate for another 2 hours.
3. Add 12 μL (4×) compounds into the cell plate by HAMILTON. Final DMSO concentration is 0.5%. Incubate for 90 minutes.
4. Aspirate […] by HAMILTON, 10 μL rest per well.
5. Add 10 μL 2× lysis buffer using HAMILTON; total volume in wells is 20 μL. Allow cells to shake for 30 min. Cover plate by plastic foil and store plate at −80° C. up to analysis.
6. Thaw cell lysate at RT and transfer 10 μL lysate to assay plate (Optiplate-384).
7. Add 5 μL acceptor beads into assay plate and incubation for 2 hours
8. Add 5 μL donor beads and incubation for 2 hours
9. Count the plate by EnSpire Multimode Plate Reader

In general, IC50 refers to the concentration at which inhibition is half-maximal. Higher therefore signals weaker potency.

`CO[C@@H]1C[C@H](C[C@@H](C)[C@@H]2CC(=O)[C@H](C)/C=C(\C)[C@@H](O)[C@@H](OC)C(=O)[C@H](C)C[C@H](C)/C=C/C=C/C=C(\C)C(OCCOCC(COCCO)COCCO)C[C@@H]3CC[C@@H](C)[C@@](O)(O3)C(=O)C(=O)N3CCCC[C@H]3C(=O)O2)CC[C@H]1O` (stereo partly shown) [Compound I-100] came in with a 50% inhibitory concentration (IC50) of 1 to 10 nM. Take `CNC(=O)OCCO[C@@H]1C[C@@H]2CC[C@@H](C)[C@@](O)(O2)C(=O)C(=O)N2CCCC[C@H]2C(=O)O[C@H]([C@H](C)C[C@@H]2CC[C@@H](OCCO)[C@H](OC)C2)CC(=O)[C@H](C)/C=C(\C)[C@@H](O)[C@@H](OC)C(=O)[C@H](C)C[C@H](C)/C=C/C=C/C=C/1C` [Compound I-74]: the IC50 lay within 0.1 to 1 nM. For `CO[C@@H]1C[C@H](C[C@@H](C)[C@@H]2CC(=O)[C@H](C)/C=C(\C)[C@@H](O)[C@@H](OC)C(=O)[C@H](C)C[C@H](C)/C=C/C=C/C=C(\C)[C@H](OCCOCCOC(F)(F)F)C[C@@H]3CC[C@@H](C)[C@@](O)(O3)C(=O)C(=O)N3CCCC[C@H]3C(=O)O2)CC[C@H]1OCCO` [Compound I-82], the IC50 was in the range of 0.1 to 1 nM. `CO[C@@H]1C[C@H](C[C@@H](C)[C@@H]2CC(=O)[C@H](C)/C=C(\C)[C@@H](O)[C@@H](OC)C(=O)[C@H](C)C[C@H](C)/C=C/C=C/C=C(\C)[C@@H](OC[C@@H](O)[C@@H](O)[C@H](O)[C@H](O)CO)C[C@@H]3CC[C@@H](C)[C@@](O)(O3)C(=O)C(=O)N3CCCC[C@H]3C(=O)O2)CC[C@H]1O` [Compound I-58] returned an IC50 of 0.1 to 1 nM. As for `CO[C@@H]1C[C@H](C[C@@H](C)[C@@H]2CC(=O)[C@H](C)/C=C(\C)[C@@H](O)[C@@H](OC)C(=O)[C@H](C)C[C@H](C)/C=C/C=C/C=C(\C)[C@@H](OCCOCCOCCO)C[C@@H]3CC[C@@H](C)[C@@](O)(O3)C(=O)C(=O)N3CCCC[C@H]3C(=O)O2)CC[C@H]1OCCOCCOCCO` [Compound I-73], the IC50 was 1 to 10 nM. The same measure for `CO[C@@H]1C[C@H](C[C@@H](C)[C@@H]2CC(=O)[C@H](C)/C=C(\C)[C@@H](O)[C@@H](OC)C(=O)[C@H](C)C[C@H](C)/C=C/C=C/C=C(\C)[C@H](OCCOCC(COCCO)COCCO)C[C@@H]3CC[C@@H](C)[C@@](O)(O3)C(=O)C(=O)N3CCCC[C@H]3C(=O)O2)CC[C@H]1O` [Compound I-64]: 1 to 10 nM. With `CO[C@@H]1C[C@H](C[C@@H](C)[C@@H]2CC(=O)[C@H](C)/C=C(\C)[C@@H](O)[C@@H](OC)C(=O)[C@H](C)C[C@H](C)/C=C/C=C/C=C(\C)C(OCCOCCOC(F)(F)F)C[C@@H]3CC[C@@H](C)[C@@](O)(O3)C(=O)C(=O)N3CCCC[C@H]3C(=O)O2)CC[C@H]1OCCO` (stereo partly shown) [Compound I-88], the IC50 is < 0.1 nM. The same measure for `CO[C@@H]1C[C@H](C[C@@H](C)[C@@H]2CC(=O)[C@H](C)/C=C(\C)[C@@H](O)[C@@H](OC)C(=O)[C@H](C)C[C@H](C)/C=C/C=C/C=C(\C)[C@@H](OCCOCC(COCCO)COCCO)C[C@@H]3CC[C@@H](C)[C@@](O)(O3)C(=O)C(=O)N3CCCC[C@H]3C(=O)O2)CC[C@H]1O` [Compound I-65]: 0.1 to 1 nM. The value for `CNC(=O)OCCOC1C[C@@H]2CC[C@@H](C)[C@@](O)(O2)C(=O)C(=O)N2CCCC[C@H]2C(=O)O[C@H]([C@H](C)C[C@@H]2CC[C@@H](OCCO)[C@H](OC)C2)CC(=O)[C@H](C)/C=C(\C)[C@@H](O)[C@@H](OC)C(=O)[C@H](C)C[C@H](C)/C=C/C=C/C=C/1C` (stereo partly shown) [Compound I-81] was 1 to 10 nM. Regarding `CO[C@@H]1C[C@H](C[C@@H](C)[C@@H]2CC(=O)[C@H](C)/C=C(\C)[C@@H](O)[C@@H](OC)C(=O)[C@H](C)C[C@H](C)/C=C/C=C/C=C(\C)C(OCCOCCOCC(F)(F)F)C[C@@H]3CC[C@@H](C)[C@@](O)(O3)C(=O)C(=O)N3CCCC[C@H]3C(=O)O2)CC[C@H]1OCCO` (stereo partly shown) [Compound I-86], the IC50 is < 0.1 nM.

Consider `COCCOCCOC1C[C@@H]2CC[C@@H](C)[C@@](O)(O2)C(=O)C(=O)N2CCCC[C@H]2C(=O)OC([C@H](C)CC2CC[C@@H](OCCOC)[C@H](OC)C2)CC(=O)[C@H](C)/C=C(\C)[C@@H](O)[C@@H](OC)C(=O)[C@H](C)C[C@H](C)/C=C/C=C/C=C/1C` (stereo partly shown) [Compound I-92], for which the IC50 was 0.1 to 1 nM. With `CO[C@@H]1C[C@H](C[C@@H](C)[C@@H]2CC(=O)[C@H](C)/C=C(\C)[C@@H](O)[C@@H](OC)C(=O)[C@H](C)C[C@H](C)/C=C/C=C/C=C(\C)C(OCCOCCOC(F)(F)C(F)(F)F)C[C@@H]3CC[C@@H](C)[C@@](O)(O3)C(=O)C(=O)N3CCCC[C@H]3C(=O)O2)CC[C@H]1OCCO` (stereo partly shown) [Compound I-87], the IC50 was < 0.1 nM. Regarding `CO[C@@H]1C[C@H](C[C@@H](C)[C@@H]2CC(=O)[C@H](C)/C=C(\C)[C@@H](O)[C@@H](OC)C(=O)[C@H](C)C[C@H](C)/C=C/C=C/C=C(\C)C(OCCOCCOCCO)C[C@@H]3CC[C@@H](C)[C@@](O)(O3)C(=O)C(=O)N3CCCC[C@H]3C(=O)O2)CC[C@H]1OCCOCCOCCO` (stereo partly shown) [Compound I-78], the IC50 was 1 to 10 nM. The value for `CNC(=O)OCCO[C@H]1C[C@@H]2CC[C@@H](C)[C@@](O)(O2)C(=O)C(=O)N2CCCC[C@H]2C(=O)OC([C@H](C)CC2CC[C@@H](OCCO)[C@H](OC)C2)CC(=O)[C@H](C)/C=C(\C)[C@@H](O)[C@@H](OC)C(=O)[C@H](C)C[C@H](C)/C=C/C=C/C=C/1C` (stereo partly shown) [Compound I-75] was < 0.1 nM; that for `CO[C@@H]1C[C@H](C[C@@H](C)[C@@H]2CC(=O)[C@H](C)/C=C(\C)[C@@H](O)[C@@H](OC)C(=O)[C@H](C)C[C@H](C)/C=C/C=C/C=C(\C)[C@H](OCCOCCOCCO)C[C@@H]3CC[C@@H](C)[C@@](O)(O3)C(=O)C(=O)N3CCCC[C@H]3C(=O)O2)CC[C@H]1OCCOCCOCCO` [Compound I-72] was 1 to 10 nM; that for `CO[C@@H]1C[C@H](C[C@@H](C)[C@@H]2CC(=O)[C@H](C)/C=C(\C)[C@@H](O)[C@@H](OC)C(=O)[C@H](C)C[C@H](C)/C=C/C=C/C=C(\C)C(OCCOCCOCCOCCOCCOCCOCCOCCOCCOCCO)C[C@@H]3CC[C@@H](C)[C@@](O)(O3)C(=O)C(=O)N3CCCC[C@H]3C(=O)O2)CC[C@H]1O` (stereo partly shown) [Compound I-98] was 1 to 10 nM. `CO[C@@H]1C[C@H](C[C@@H](C)[C@@H]2CC(=O)[C@H](C)/C=C(\C)[C@@H](O)[C@@H](OC)C(=O)[C@H](C)C[C@H](C)/C=C/C=C/C=C(\C)[C@H](OCCOCCOC(F)(F)C(F)(F)F)C[C@@H]3CC[C@@H](C)[C@@](O)(O3)C(=O)C(=O)N3CCCC[C@H]3C(=O)O2)CC[C@H]1OCCO` [Compound I-79] came in with an IC50 of 1 to 10 nM.

In turn, `CO[C@@H]1C[C@H](C[C@@H](C)[C@@H]2CC(=O)[C@H](C)/C=C(\C)[C@@H](O)[C@@H](OC)C(=O)[C@H](C)C[C@H](C)/C=C/C=C/C=C(\C)[C@@H](OCCOCCO)C[C@@H]3CC[C@@H](C)[C@@](O)(O3)C(=O)C(=O)N3CCCC[C@H]3C(=O)O2)CC[C@H]1OCCOCCO` [Compound I-67] displayed an IC50 of 0.1 to 1 nM.

For the compound `CO[C@@H]1C[C@H](C[C@@H](C)[C@@H]2CC(=O)[C@H](C)/C=C(\C)[C@@H](O)[C@@H](OC)C(=O)[C@H](C)C[C@H](C)/C=C/C=C/C=C(\C)C(OCCOCCOCC(F)(F)F)C[C@@H]3CC[C@@H](C)[C@@](O)(O3)C(=O)C(=O)N3CCCC[C@H]3C(=O)O2)CC[C@H]1O` (stereo partly shown) [Compound I-91], the IC50 is < 0.1 nM. Consider `CO[C@@H]1C[C@H](C[C@@H](C)[C@@H]2CC(=O)[C@H](C)/C=C(\C)[C@@H](O)[C@@H](OC)C(=O)[C@H](C)C[C@H](C)/C=C/C=C/C=C(\C)C(OC[C@@H](O)[C@@H](O)[C@H](O)[C@H](O)CO)C[C@@H]3CC[C@@H](C)[C@@](O)(O3)C(=O)C(=O)N3CCCC[C@H]3C(=O)O2)CC[C@H]1O` (stereo partly shown) [Compound I-63], for which the IC50 is ≥ 100 nM. The value for `CO[C@@H]1C[C@H](C[C@@H](C)[C@@H]2CC(=O)[C@H](C)/C=C(\C)[C@@H](O)[C@@H](OC)C(=O)[C@H](C)C[C@H](C)/C=C/C=C/C=C(\C)[C@@H](OCCOCCOC(F)(F)C(F)(F)F)C[C@@H]3CC[C@@H](C)[C@@](O)(O3)C(=O)C(=O)N3CCCC[C@H]3C(=O)O2)CC[C@H]1OCCO` [Compound I-80] was 0.1 to 1 nM; that for `CO[C@@H]1C[C@H](C[C@@H](C)[C@@H]2CC(=O)[C@H](C)/C=C(\C)[C@@H](O)[C@@H](OC)C(=O)[C@H](C)C[C@H](C)/C=C/C=C/C=C(\C)[C@H](OC[C@@H](O)[C@@H](O)[C@H](O)[C@H](O)CO)C[C@@H]3CC[C@@H](C)[C@@](O)(O3)C(=O)C(=O)N3CCCC[C@H]3C(=O)O2)CC[C@H]1O` [Compound I-57] was < 0.1 nM; that for `COCCOCCO[C@@H]1C[C@@H]2CC[C@@H](C)[C@@](O)(O2)C(=O)C(=O)N2CCCC[C@H]2C(=O)O[C@H]([C@H](C)C[C@@H]2CC[C@@H](OCCOC)[C@H](OC)C2)CC(=O)[C@H](C)/C=C(\C)[C@@H](O)[C@@H](OC)C(=O)[C@H](C)C[C@H](C)/C=C/C=C/C=C/1C` [Compound I-89] was 1 to 10 nM. `CO[C@@H]1C[C@H](C[C@@H](C)[C@@H]2CC(=O)[C@H](C)/C=C(\C)[C@@H](O)[C@@H](OC)C(=O)[C@H](C)C[C@H](C)/C=C/C=C/C=C(\C)C(OCCOCCO)C[C@@H]3CC[C@@H](C)[C@@](O)(O3)C(=O)C(=O)N3CCCC[C@H]3C(=O)O2)CC[C@H]1OCCOCCO` (stereo partly shown) [Compound I-76] registered an IC50 of 1 to 10 nM. The same measure for `CCCCCCOC1C[C@@H]2CC[C@@H](C)[C@@](O)(O2)C(=O)C(=O)N2CCCC[C@H]2C(=O)O[C@H]([C@H](C)C[C@@H]2CC[C@@H](O)[C@H](OC)C2)CC(=O)[C@H](C)/C=C(\C)[C@@H](O)[C@@H](OC)C(=O)[C@H](C)C[C@H](C)/C=C/C=C/C=C/1C` (stereo partly shown) [Compound I-103]: 0.1 to 1 nM.
